In ChEMBL document CHEMBL1201862, “PubChem BioAssay data set” (2004):
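Grown in 96-well plates, cells were treated for 48 hours with each compound at five concentrations. Insufficient inhibition: endpoint recorded as highest concentration tested. GI50: concentration for 50% inhibition of growth.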 Activity calls are given as the source filed them. No stated cut-off is given here; in the data, active = GI50 up to about 1.1 µM and inactive = higher.

Experiments:
Assay in all cases: NCI-60 cell line screen, 48 h
CCRF-CEM = test system: CCRF-CEM
HCT-116 = test system: HCT-116
HOP-92 = test system: HOP-92
IGROV-1 = test system: IGROV-1
K562 = test system: K562
KM12 = test system: KM12
MCF7 = test system: MCF7
MDA-N = test system: MDA-N
Malme-3M = test system: Malme-3M
NCI-H226 = test system: NCI-H226
NCI/ADR-RES = test system: NCI/ADR-RES
OVCAR-5 = test system: OVCAR-5
OVCAR-8 = test system: OVCAR-8
RPMI-8226 = test system: RPMI-8226
RXF 393 = test system: RXF 393
SK-MEL-5 = test system: SK-MEL-5
SN12C = test system: SN12C
SNB-19 = test system: SNB-19
SR = test system: SR
UACC-257 = test system: UACC-257

Measured: GI50

CCn1c(SCc2nnc(Nc3ccccc3)s2)nc2ccccc2c1=O
inactive: CCRF-CEM 47.6 µM | HCT-116 1.95 µM | HOP-92 2.57 µM | IGROV-1 3.62 µM | K562 19.8 µM | KM12 2.38 µM | MCF7 9.93 µM | MDA-N 8.77 µM | Malme-3M 1.46 µM | NCI-H226 2.19 µM | NCI/ADR-RES 2.59 µM | OVCAR-5 6.14 µM | OVCAR-8 2.02 µM | RPMI-8226 5.5 µM | RXF 393 4.04 µM | SK-MEL-5 8.15 µM | SN12C 4.23 µM | SNB-19 3.5 µM | SR 23.7 µM | UACC-257 11.8 µM

Cc1cc(S(=O)(=O)Nc2nc3ccccc3nc2-c2ccc(Cl)cc2)c(S)cc1Cl
inactive: CCRF-CEM 21.7 µM | HCT-116 19.4 µM | HOP-92 20.4 µM | IGROV-1 12.4 µM | K562 19.9 µM | KM12 17.2 µM | MCF7 17 µM | MDA-N 18 µM | Malme-3M 22.7 µM | NCI-H226 23.1 µM | NCI/ADR-RES 19.4 µM | OVCAR-5 19.6 µM | OVCAR-8 23.2 µM | RPMI-8226 23.1 µM | RXF 393 23 µM | SK-MEL-5 14 µM | SN12C 25.6 µM | SNB-19 19 µM | SR 17.3 µM | UACC-257 21.7 µM

COc1cc(S(=O)(=O)Nc2ccc(-c3csc(N4C(=O)CSC4c4ccccc4)n3)cc2)ccc1Cl (stereo not given)
inactive: CCRF-CEM 34.2 µM | HCT-116 54 µM | HOP-92 20.6 µM | IGROV-1 51.4 µM | K562 39.7 µM | KM12 30.5 µM | MCF7 22.6 µM | MDA-N 39.9 µM | Malme-3M > 100 µM | NCI-H226 94.4 µM | NCI/ADR-RES > 100 µM | OVCAR-5 > 100 µM | OVCAR-8 > 100 µM | RPMI-8226 24.4 µM | RXF 393 29.2 µM | SK-MEL-5 92.9 µM | SN12C > 100 µM | SNB-19 13.7 µM | SR 32.3 µM | UACC-257 40.9 µM

CC1=NN(c2nc(N)nc(C(C#N)C(=O)c3cc4c(cc3Cl)Sc3nccn3S4(=O)=O)n2)C(C)(C)C1 (stereo not given)
inactive: CCRF-CEM 6.84 µM | HCT-116 18 µM | HOP-92 26.7 µM | IGROV-1 20.8 µM | K562 34.9 µM | KM12 20 µM | MCF7 14.3 µM | MDA-N 21.9 µM | Malme-3M 14.3 µM | NCI-H226 16.5 µM | NCI/ADR-RES > 100 µM | OVCAR-5 > 100 µM | OVCAR-8 20.7 µM | RPMI-8226 14.9 µM | RXF 393 27.3 µM | SK-MEL-5 14 µM | SN12C 17.3 µM | SNB-19 55.6 µM | SR 4.4 µM | UACC-257 19.2 µM

N#Cc1c(-c2ccc(Cl)cc2)c2c([nH]c1=O)-c1ccccc1SC2
inactive: CCRF-CEM 26.3 µM | HCT-116 35.4 µM | HOP-92 17.7 µM | IGROV-1 56.9 µM | K562 32.9 µM | KM12 63.7 µM | MCF7 27.5 µM | MDA-N 77.6 µM | Malme-3M 33.1 µM | NCI-H226 38.6 µM | NCI/ADR-RES 29.2 µM | OVCAR-5 > 100 µM | OVCAR-8 57.5 µM | RPMI-8226 16.7 µM | RXF 393 25.2 µM | SK-MEL-5 > 100 µM | SN12C 54.3 µM | SNB-19 91.8 µM | SR 29.2 µM | UACC-257 > 100 µM

CN(C)CCCC1c2ccccc2Oc2ccc(C(F)(F)F)cc21 (stereo not given)
inactive: CCRF-CEM 9.42 µM | HCT-116 11.7 µM | HOP-92 11.9 µM | IGROV-1 14 µM | K562 5.9 µM | KM12 14.2 µM | MCF7 12.7 µM | MDA-N 4.02 µM | Malme-3M 2.79 µM | NCI-H226 8.2 µM | NCI/ADR-RES 13.7 µM | OVCAR-5 14.9 µM | OVCAR-8 16.8 µM | RPMI-8226 8.2 µM | RXF 393 7.19 µM | SK-MEL-5 7.45 µM | SN12C 13.5 µM | SNB-19 16.7 µM | SR 7.28 µM | UACC-257 11.6 µM
